The source of these data is PubChem BioAssay (NCI).

Values joined by “and” are separate entries in the source; they are usually repeats but may differ in a detail not shown here. Equal entries are not always repeated.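 Protocol summary: plate cells (96-well), add compound at 5 concentrations, incubate 48 h, interpolate endpoints linearly. Here, GI50 denotes the concentration required for 50% inhibition of growth. At the TGI there is no net growth.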 Some results are limits rather than exact numbers.

Some test systems named below: NCI/ADR-RES ovarian; SK-MEL-5 melanoma; RPMI-8226 leukemia; CAKI-1 renal; SF-539 CNS; KM12 colon; ACHN renal; OVCAR-8 ovarian.
Assay in all cases: inhibition of tumour cell growth, NCI panel, 48 h

Regarding `COc1cc([N+](=O)[O-])c(OC)cc1-c1nc2sccn2c1/C=N/N=C(N)N`, the GI50 in the assay with NCI/ADR-RES ovarian was 51.1 µM; in the assay with SK-MEL-5 melanoma, 33.7 µM; in the assay on RPMI-8226 leukemia, more than 100 µM; with CAKI-1 renal, 22.9 µM; with SF-539 CNS, 12 µM; with KM12 colon, 4.36 µM. Also, the GI50 with ACHN renal was 12.8 µM; in the assay with OVCAR-8 ovarian it was 17.3 µM. The TGI was more than 100 µM with NCI/ADR-RES ovarian; more than 100 µM with SK-MEL-5 melanoma; more than 100 µM with RPMI-8226 leukemia; 66.3 µM with CAKI-1 renal; 46.5 µM in the assay with SF-539 CNS; more than 100 µM in the assay on KM12 colon. In addition, the values for the TGI with ACHN renal and with OVCAR-8 ovarian were 28.8 µM and 59.8 µM, respectively.
Take `Cc1nn(-c2ccc(Cl)cc2)c2nc3c(nc12)C(=O)C(=O)c1ccccc1-3`: the GI50 in the assay on NCI/ADR-RES ovarian is 3.92 µM; with SK-MEL-5 melanoma, 4.94 µM; with RPMI-8226 leukemia, 5.65 µM; in the assay on CAKI-1 renal it was 7.93 µM; in the assay with SF-539 CNS, 3.14 µM; with KM12 colon, 3.76 µM. Also, the GI50 in the assay on ACHN renal was 19.5 µM; with OVCAR-8 ovarian, 21.7 µM. In addition, the TGI with NCI/ADR-RES ovarian was more than 100 µM; in the assay with SK-MEL-5 melanoma, 24.1 µM; in the assay with RPMI-8226 leukemia, more than 100 µM; in the assay with CAKI-1 renal, more than 100 µM; in the assay on SF-539 CNS it was 9.3 µM; in the assay on KM12 colon, 15.6 µM. For the same compound, the TGI in the assay with ACHN renal and with OVCAR-8 ovarian was more than 100 µM throughout.
`O=S(=O)(c1cccc2c(I)cccc12)N1CCCNCC1`: the GI50 in the assay on NCI/ADR-RES ovarian is 20.2 µM; in the assay on SK-MEL-5 melanoma, 8.71 µM; in the assay with RPMI-8226 leukemia, 14.5 µM; in the assay with CAKI-1 renal, 19.2 µM; in the assay on SF-539 CNS, 15.7 µM; in the assay with KM12 colon, 16.3 µM. Besides, the values for the GI50 with ACHN renal and with OVCAR-8 ovarian were 18.1 µM and 24.4 µM, respectively. Besides, the TGI in the assay on NCI/ADR-RES ovarian was found to be 43.5 µM; in the assay on SK-MEL-5 melanoma it was 25.2 µM; in the assay with RPMI-8226 leukemia, 38.5 µM; with CAKI-1 renal, 37.8 µM; with SF-539 CNS it was 32.8 µM; in the assay with KM12 colon, 33.9 µM. In addition, the values for the TGI with ACHN renal and in the assay on OVCAR-8 ovarian were 33.6 µM and 51.9 µM, respectively.
Regarding `Nc1c(C(=O)c2cccc(C#CCO)c2)cnn1-c1ccc(F)cc1`, the GI50 in the assay with NCI/ADR-RES ovarian, with SK-MEL-5 melanoma, in the assay on RPMI-8226 leukemia, with CAKI-1 renal, with SF-539 CNS and in the assay with KM12 colon was more than 25 µM throughout. The GI50 in the assay with ACHN renal and with OVCAR-8 ovarian was more than 25 µM each time. The TGI in the assay with NCI/ADR-RES ovarian, with SK-MEL-5 melanoma, in the assay with RPMI-8226 leukemia, with CAKI-1 renal, with SF-539 CNS and in the assay on KM12 colon was more than 25 µM throughout. The TGI in the assay on ACHN renal and with OVCAR-8 ovarian was more than 25 µM each time.
With `CC(=O)[O][Sn]([CH2]c1ccccc1)([CH2]c1ccccc1)[CH2]c1ccccc1`, the GI50 in the assay with NCI/ADR-RES ovarian was more than 10 µM; with SK-MEL-5 melanoma, 4.15 µM; in the assay on RPMI-8226 leukemia it was 3.65 µM; in the assay with CAKI-1 renal, more than 10 µM; in the assay on SF-539 CNS it was more than 5.42 µM; with KM12 colon it was more than 10 µM. In addition, the GI50 in the assay on ACHN renal and in the assay with OVCAR-8 ovarian was more than 10 µM throughout. For the same compound, the TGI is more than 10 µM in the assay with NCI/ADR-RES ovarian; more than 6.51 µM with SK-MEL-5 melanoma; more than 4.64 µM in the assay on RPMI-8226 leukemia; more than 10 µM in the assay on CAKI-1 renal; more than 6.76 µM in the assay with SF-539 CNS; more than 10 µM with KM12 colon. In addition, the TGI in the assay with ACHN renal and in the assay with OVCAR-8 ovarian was more than 10 µM in each case.
With `CCOC(=O)C1CCCCN1C(=O)c1ccc(Nc2cnc3cc(C(F)(F)F)ccc3n2)cc1` (stereo not given), the GI50 with NCI/ADR-RES ovarian was 14.1 µM; in the assay on SK-MEL-5 melanoma, 12.4 µM; in the assay with RPMI-8226 leukemia it was 2.2 µM; in the assay on CAKI-1 renal, 18 µM; in the assay with SF-539 CNS, 15.8 µM; in the assay on KM12 colon, 13.1 µM. In addition, the GI50 is 15.4 µM in the assay with ACHN renal and 33.2 µM in the assay on OVCAR-8 ovarian. Also, the TGI in the assay with NCI/ADR-RES ovarian was 29.2 µM; with SK-MEL-5 melanoma, 25.1 µM; with RPMI-8226 leukemia, 6.42 µM; in the assay with CAKI-1 renal, 33.9 µM; with SF-539 CNS, 37.1 µM; in the assay on KM12 colon, 27.8 µM. Further, the TGI in the assay with ACHN renal is 43.4 µM; in the assay on OVCAR-8 ovarian it was more than 100 µM.
`CC1=C(C(=O)N(C)c2ccc(Cl)c(C(=O)OC(C)C)c2)SCCO1`: the TGI in the assay with NCI/ADR-RES ovarian, with SK-MEL-5 melanoma, with RPMI-8226 leukemia, in the assay with CAKI-1 renal, in the assay with SF-539 CNS and with KM12 colon was more than 100 µM throughout. In addition, the TGI in the assay with ACHN renal and with OVCAR-8 ovarian was more than 100 µM throughout.
With `NC(=O)Nc1cc(-c2cccc(F)c2)sc1C(=O)N[C@H]1CCCNC1`, the GI50 is 2.19 µM and 3.16 µM in the assay on NCI/ADR-RES ovarian; 0.295 µM and 0.456 µM with SK-MEL-5 melanoma; 0.66 µM and 0.482 µM in the assay with RPMI-8226 leukemia; 0.184 µM and 0.888 µM in the assay with CAKI-1 renal; 0.0192 µM and 0.0616 µM with SF-539 CNS; 0.00626 µM and 0.0351 µM with KM12 colon. Further, the GI50 with ACHN renal was 0.0512 µM and 0.0952 µM; in the assay with OVCAR-8 ovarian it was 0.131 µM and 0.318 µM. Moreover, the TGI was > 10 µM and 19.8 µM in the assay with NCI/ADR-RES ovarian; 2.06 µM and 4.27 µM in the assay on SK-MEL-5 melanoma; > 8.22 µM and 6.11 µM in the assay on RPMI-8226 leukemia; > 3.98 µM and 4.2 µM in the assay with CAKI-1 renal; 0.17 µM and 0.331 µM with SF-539 CNS; 6.38 µM and 3.3 µM in the assay on KM12 colon. Also, the TGI is > 4.73 µM and 2.75 µM in the assay with ACHN renal; > 3.36 µM and 2.04 µM in the assay on OVCAR-8 ovarian.
